Results from patent publication US20250059164A1, “IRAK DEGRADERS AND USES THEREOF” (Kymera Therapeutics, Inc., priority 2023, published 2025).

Target: T1, IRAK4 (Homo sapiens, UniProt Q9NWZ3)
T1 construct: endogenous in cells; host or cells: OCI-LY10
T1 sequence (Q9NWZ3 1-460): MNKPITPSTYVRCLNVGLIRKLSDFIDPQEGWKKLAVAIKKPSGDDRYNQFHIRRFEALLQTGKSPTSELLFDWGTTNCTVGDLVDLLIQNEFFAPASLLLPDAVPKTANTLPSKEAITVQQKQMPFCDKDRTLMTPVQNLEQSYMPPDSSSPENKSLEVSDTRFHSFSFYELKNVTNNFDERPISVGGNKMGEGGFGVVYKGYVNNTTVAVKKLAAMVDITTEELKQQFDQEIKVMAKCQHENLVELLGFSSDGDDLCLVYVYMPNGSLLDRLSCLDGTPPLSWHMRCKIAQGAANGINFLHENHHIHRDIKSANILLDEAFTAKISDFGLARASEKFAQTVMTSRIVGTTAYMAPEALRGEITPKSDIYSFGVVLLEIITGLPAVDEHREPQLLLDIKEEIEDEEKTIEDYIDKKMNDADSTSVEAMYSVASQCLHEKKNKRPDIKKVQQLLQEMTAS
Experiment: IRAK4 MSD degradation in OCI-LY10
Type: cell-based
Settings: OCI-LY10 cells, 24 hrs, Meso Scale Discovery
Summary of the method: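 OCI-LY10 cells treated 4 to 24 hours at 37° C. with 8-dose 1:3 series, top 1 to 10 μM. IRAK4 in lysates quantified by MSD sandwich immunoassay (mouse capture, rabbit detection, SULFO-TAG anti-rabbit). DC50 from three-parameter logistic fit.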

Row | DC50 | Compound
1 | > 200 nM | Cn1c(NC(=O)c2cccc(C(F)(F)F)n2)cc2cn([C@H]3CC[C@H](CN4CC[C@H](c5cccc6c5n(C)c(=O)n6C5CCC(=O)NC5=O)[C@@H](F)C4)CC3)nc2c1=O (stereo partly shown) [I-43]
2 | 10 to 100 nM | COc1nc(NC(=O)c2cccc(C(F)F)n2)cc2cn([C@H]3CC[C@H](CN4CC[C@H](c5cccc6c5n(C)c(=O)n6C5CCC(=O)NC5=O)C(F)(F)C4)CC3)nc12 (stereo partly shown) [I-44]
3 | 10 to 100 nM | COc1cc2nn([C@H]3CC[C@H](CN4CCC5(CC4)CCN(c4cccc6c4c(C)nn6C4CCC(=O)NC4=O)CC5)CC3)cc2cc1NC(=O)c1cncc(C)c1 (stereo partly shown) [I-50]
4 | 10 to 100 nM | O=C1CCC(c2ccc(N3CC(CO[C@H]4CCN(C[C@H]5CC[C@H](n6cc(NC(=O)c7cnn8ccc(N9C[C@H]%10C[C@@H]9CO%10)nc78)c(C(F)F)n6)CC5)C[C@@H]4F)C3)cc2Cl)C(=O)N1 (stereo partly shown) [I-55]
5 | < 10 nM | Cc1nn(C2CCC(=O)NC2=O)c2cccc(N3CC(CO[C@@H]4CCN(C[C@H]5CC[C@H](n6cc(NC(=O)c7cnn8ccc(N9C[C@H]%10C[C@@H]9CO%10)nc78)c(C(F)F)n6)CC5)C[C@@H]4F)C3)c12 (stereo partly shown) [I-56]
6 | > 200 nM | Cc1nn(C2CCC(=O)NC2=O)c2cccc(N3CC(N4CCN([C@H]5CC[C@@H](n6cc(NC(=O)c7cnn8ccc(N9C[C@H]%10C[C@@H]9CO%10)nc78)c(C(F)F)n6)CC5)CC4)C3)c12 (stereo partly shown) [I-57]
7 | < 10 nM | CN(C[C@H]1C[C@@H](n2cc(NC(=O)c3cnn4ccc(N5C[C@H]6C[C@@H]5CO6)nc34)c(C(F)F)n2)C1)[C@@H]1CCN(c2cccc3c2n(C)c(=O)n3C2CCC(=O)NC2=O)C[C@@H]1F (stereo partly shown) [I-64]
8 | < 10 nM | CN(C[C@H]1C[C@@H](n2cc(NC(=O)c3cnn4ccc(N5C[C@H]6C[C@@H]5CO6)nc34)c(C(F)F)n2)C1)[C@H]1CCN(c2cccc3c2n(C)c(=O)n3C2CCC(=O)NC2=O)C[C@H]1F (stereo partly shown) [I-65]
9 | < 10 nM | CN(C[C@H]1CC[C@H](n2cc3cc(NC(=O)c4cccc(C(F)(F)F)n4)c(C(C)(C)O)cc3n2)CC1)[C@H]1CCN(c2cccc3c2n(C)c(=O)n3C2CCC(=O)NC2=O)C[C@@H]1F (stereo partly shown) [I-68]
10 | < 10 nM | CN(C[C@H]1CC[C@H](n2cc3cc(NC(=O)c4cccc(C(F)(F)F)n4)c(C(C)(C)O)cc3n2)CC1)[C@H]1CCN(c2cccc3c2n(C)c(=O)n3C2CCC(=O)NC2=O)C[C@H]1F (stereo partly shown) [I-70]
11 | 10 to 100 nM | O=C1CCC(c2noc3c(NC(=O)CN4CCN(C[C@H]5CC[C@H](n6cc7cc(NC(=O)c8cccc(C(F)(F)F)n8)ncc7n6)CC5)CC4)cccc23)C(=O)N1 (stereo partly shown) [I-71]
12 | 10 to 100 nM | O=C1CCC(Nc2ccc(N3CC(O)(CN4CCN(C[C@H]5CC[C@H](n6cc(NC(=O)c7cnn8ccc(N9C[C@H]%10C[C@@H]9CO%10)nc78)c(C(F)F)n6)CC5)CC4)C3)cc2)C(=O)N1 (stereo partly shown) [I-72]
13 | < 10 nM | O=C1CCN(c2cncc3c(N4CC(CN5CCN(C[C@H]6CC[C@H](n7cc(NC(=O)c8cnn9ccc(N%10C[C@H]%11C[C@@H]%10CO%11)nc89)c(C(F)F)n7)CC6)CC5)C4)cccc23)C(=O)N1 [I-74]
14 | < 10 nM | CC(C)(O)c1cc2nn([C@H]3CC[C@H](CN4CCN(c5ccc(C6CCC(=O)NC6=O)c(Cl)c5)CC4)CC3)cc2cc1NC(=O)c1cccc(C(F)(F)F)n1 (stereo partly shown) [I-76]
15 | 10 to 100 nM | CC(C)(O)c1cc2nn([C@H]3CC[C@H](CN4CCN(c5cccc(NC6CCC(=O)NC6=O)c5)CC4)CC3)cc2cc1NC(=O)c1cccc(C(F)(F)F)n1 (stereo partly shown) [I-77]
16 | < 10 nM | COc1cc2nn([C@H]3CC[C@H](CN(C)[C@H]4CCN(c5cccc6c5n(C)c(=O)n6C5CCC(=O)NC5=O)C[C@H]4F)CC3)cc2cc1NC(=O)c1cccc(C(F)(F)F)n1 (stereo partly shown) [I-82]
17 | < 10 nM | Cn1nc(C2CCC(=O)NC2=O)c2cccc(N3CC(O)(CN4CCN(C[C@H]5CC[C@H](n6cc(NC(=O)c7cnn8ccc(N9C[C@H]%10C[C@@H]9CO%10)nc78)c(C(F)F)n6)CC5)CC4)C3)c21 (stereo partly shown) [I-86]
18 | < 10 nM | Cc1nn([C@H]2CCC(=O)NC2=O)c2cccc(N3CC(CN4CCN(C[C@H]5CC[C@H](n6cc(NC(=O)c7cnn8ccc(N9C[C@H]%10C[C@@H]9CO%10)nc78)c(C(F)F)n6)CC5)CC4)C3)c12 [I-88]

The next lines start with the molecule.

Row | Compound | DC50
19 | Cc1nn(C2CCC(=O)NC2=O)c2cccc(N3CC(CN4CCN(C[C@H]5CC[C@H](n6cc(NC(=O)c7cnn8ccc(N9C[C@H]%10C[C@@H]9CO%10)nc78)c(C(F)F)n6)CC5)CC4)C3)c12 (stereo partly shown) [I-45] | < 10 nM
20 | COc1cc2nn([C@H]3CC[C@H](CN4CCN(c5cccc6c5c(C)nn6C5CCC(=O)NC5=O)CC4)CC3)cc2cc1NC(=O)c1cncc(C#N)c1 (stereo partly shown) [I-48] | 10 to 100 nM
21 | COc1cc2nn([C@H]3CC[C@H](CN4CCC5(CC4)CCN(c4cccc6c4c(C)nn6C4CCC(=O)NC4=O)CC5)CC3)cc2cc1NC(=O)c1cncc(C#N)c1 (stereo partly shown) [I-49] | 10 to 100 nM
22 | C[C@H]1CN(c2ccn3ncc(C(=O)Nc4cn([C@H]5CC[C@H](CN(C)[C@H]6CCN(c7cccc8c7n(C)c(=O)n8C7CCC(=O)NC7=O)C[C@H]6F)CC5)nc4C(F)F)c3n2)CCO1 (stereo partly shown) [I-51] | < 10 nM
23 | Cc1nn(C2CCC(=O)NC2=O)c2cccc([C@H]3CCN(C[C@H]4CC[C@H](n5cc6cc(NC(=O)c7cccc(C(F)(F)F)n7)ncc6n5)CC4)C[C@@H]3F)c12 (stereo partly shown) [I-53] | 10 to 100 nM
24 | Cc1nn(C2CCC(=O)NC2=O)c2cccc(N3CC(N4CCN([C@H]5CC[C@H](n6cc(NC(=O)c7cnn8ccc(N9C[C@H]%10C[C@@H]9CO%10)nc78)c(C(F)F)n6)CC5)CC4)C3)c12 (stereo partly shown) [I-54] | < 10 nM
25 | CN(C[C@H]1CC[C@H](n2cc3cc(NC(=O)c4cccc(C(F)(F)F)n4)c(C#N)cc3n2)CC1)[C@@H]1CCN(c2cccc3c2n(C)c(=O)n3C2CCC(=O)NC2=O)C[C@H]1F (stereo partly shown) [I-58] | < 10 nM
26 | O=C1CCC(Nc2ccc(N3CC(CN4CCN(C[C@H]5CC[C@H](n6cc(NC(=O)c7cnn8ccc(N9C[C@H]%10C[C@@H]9CO%10)nc78)c(C(F)F)n6)CC5)CC4)C3)cc2)C(=O)N1 (stereo partly shown) [I-61] | 10 to 100 nM
27 | CN(c1cccc(N2CCN(C[C@H]3CC[C@H](n4cc5cc(NC(=O)c6cccc(C(F)(F)F)n6)ncc5n4)CC3)CC2)c1)C1CCC(=O)NC1=O (stereo partly shown) [I-62] | 100 to 200 nM
28 | Cn1c(=O)n(C2CCC(=O)NC2=O)c2cccc([C@H]3CCN(C[C@H]4CC[C@H](n5cc6cc(NC(=O)c7cccc(C(F)(F)F)n7)c(C(C)(C)O)cc6n5)CC4)C[C@@H]3F)c21 (stereo partly shown) [I-63] | < 10 nM
29 | O=C1CCN(c2cncc3c(N4CC(O)(CN5CCN(C[C@H]6CC[C@H](n7cc(NC(=O)c8cnn9ccc(N%10C[C@H]%11C[C@@H]%10CO%11)nc89)c(C(F)F)n7)CC6)CC5)C4)cccc23)C(=O)N1 [I-67] | < 10 nM
30 | CN(C[C@H]1CC[C@H](n2cc3cc(NC(=O)c4cccc(C(F)(F)F)n4)c(C(C)(C)O)cc3n2)CC1)[C@@H]1CCN(c2cccc3c2n(C)c(=O)n3C2CCC(=O)NC2=O)C[C@@H]1F (stereo partly shown) [I-69] | < 10 nM
31 | COc1cc2nn([C@H]3CC[C@H](CN(C)[C@H]4CCN(c5cccc6c5n(C)c(=O)n6C5CCC(=O)NC5=O)C[C@@H]4F)CC3)cc2cc1NC(=O)c1cccc(C(F)(F)F)n1 (stereo partly shown) [I-80] | < 10 nM
32 | COc1cc2nn([C@H]3CC[C@H](CN(C)[C@@H]4CCN(c5cccc6c5n(C)c(=O)n6C5CCC(=O)NC5=O)C[C@@H]4F)CC3)cc2cc1NC(=O)c1cccc(C(F)(F)F)n1 (stereo partly shown) [I-81] | < 10 nM
33 | N#Cc1cncc(C(=O)Nc2cc3cn([C@H]4CC[C@H](CN5CCN(CC(=O)Nc6cccc7c(C8CCC(=O)NC8=O)noc67)CC5)CC4)nc3cn2)c1 (stereo partly shown) [I-84] | > 200 nM
34 | Cc1nn([C@@H]2CCC(=O)NC2=O)c2cccc(N3CC(CN4CCN(C[C@H]5CC[C@H](n6cc(NC(=O)c7cnn8ccc(N9C[C@H]%10C[C@@H]9CO%10)nc78)c(C(F)F)n6)CC5)CC4)C3)c12 [I-87] | < 10 nM
